Results as given in US20120232062A1, “AZAINDAZOLES TO TREAT FLAVIVIRIDAE VIRUS INFECTION” (EIGER BIOPHARMACEUTICALS, INC., priority 2009, published 2012).

The molecules below were run against T1, CYP 1A2 (Homo sapiens, UniProt P05177) (assay: CYP inhibition testing, CYP 1A2). Conditions: human liver microsomes; >75 = low level of inhibition.
T1 construct: For human liver microsome solution, a stock solution (20 mg/mL (4×final)) is used; from tissue; host or cells: human liver microsomes
T1 sequence (P05177 1-516): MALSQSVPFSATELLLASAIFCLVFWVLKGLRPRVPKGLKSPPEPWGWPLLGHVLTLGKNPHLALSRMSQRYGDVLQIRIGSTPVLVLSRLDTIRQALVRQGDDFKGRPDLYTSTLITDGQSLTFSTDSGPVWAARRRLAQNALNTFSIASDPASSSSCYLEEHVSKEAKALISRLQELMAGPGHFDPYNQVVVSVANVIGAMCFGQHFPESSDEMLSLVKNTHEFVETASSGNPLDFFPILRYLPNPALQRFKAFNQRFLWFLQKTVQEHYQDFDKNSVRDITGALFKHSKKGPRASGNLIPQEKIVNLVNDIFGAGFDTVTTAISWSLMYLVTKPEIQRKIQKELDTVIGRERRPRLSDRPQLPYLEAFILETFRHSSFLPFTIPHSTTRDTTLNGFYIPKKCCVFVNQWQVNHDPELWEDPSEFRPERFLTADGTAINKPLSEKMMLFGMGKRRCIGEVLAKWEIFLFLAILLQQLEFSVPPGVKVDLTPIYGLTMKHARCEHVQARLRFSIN
Assay type: in vitro ADME
Procedure: Select compounds are tested for CYP inhibition against five different CYP enzymes: CYP 1A2, CYP 2C9, CYP 2C19, CYP 2D6, CYP 3A4. Individual CYP enzymes are incubated with corresponding substrates with no inhibitor (negative control). Individual CYP enzymes are then incubated with corresponding substrates in the presence of test compound. […] Values of 70>v, w, x, y, z>30 indicate moderate level of inhibition of the corresponding enzyme.
The following reagents are used: Sodium Phosphate, monobasic; Sodium Phosphate, dibasic; β-Nicotinamide Adenine Dinucleotide Phosphate-Reduced (NADPH), Roche; Milli-Q Water; 0.1 M Potassium phosphate buffer (K-buffer), pH 7.4. The following stock solutions are used. Stock A (136.5 g of monobasic potassium phosphate in 1 L of Milli-Q water (1.0 M)). Stock B (174.2 g of dibasic potassium phosphate in 1 L of Milli-Q water (1.0 M)). 40.5 mL of Stock B is mixed with 9.5 mL of Stock A, and the total volume brought near 500 mL with Milli-Q water to give 0.1 M potassium phosphate buffer. The buffer is titrated with KOH or H3PO4 to pH 7.4. To prepare a cofactor buffer (4×, 8 mM NADPH), 66.7 mg of NADPH tetrasodium salt is dissolved in 10 mL of K-buffer. For human liver microsome solution, a stock solution (20 mg/mL (4×final)) is used.
The following Positive control stock solutions are prepared: 0.3 mM α-Naphthoflavone (MW: 272.3, 0.0817 mg of α-Naphthoflavone in 1 mL DMSO), 10 mM Sulfaphenazole (MW: 314.4, 3.14 mg of sulfaphenazole in 1 mL DMSO) 100 mM Omeprazole (MW: 345.4, 34.54 mg of omeprazole in 1 mL DMSO), 2.5 mM Quinidine (MW: 324, 0.81 mg of quinidine in 1 mL DMSO), and 2.5 mM Ketoconazole (MW: 531.4, 1.33 mg of ketoconazole in 1 mL DMSO).
The following substrate stock solutions are prepared: 6 mM Phenacetin (MW: 179.22, 1.075 mg of phenacetin in 1 mL can), 10 mM Diclofenac (MW: 318.83, 3.18 mg of Diclofenac in 1 ml H2O), 35 mM S-Mephenyloin (MW: 218.25, 7.64 mg of s-mephenyloin in 1 mL ACN 10 mM Bufuralol (MW: 297.82, 2.98 mg of Bufuralol in 1 ml H2O), 1 mM Midazolam (MW: 325.77, 0.326 mg of midazolam in 1 mL can), and 10 mM Testosterone (MW: 288.42, 2.88 mg of Testosterone in 1 ml ACN.
Test compounds and reference compounds (positive control) are prepared in 0.2 mg/ml liver microsome solution. A 0.2 mg/ml liver microsome solution (2×final) is prepared from stock solution by adding 10 μL microsome stock solutions (20 mg/ml) in 990 μL K-buffer. 8 μL of 10 mM test compound stock solution (in DMSO or other solvent at various concentrations) is diluted with 12 μL ACN to make 4 mM solutions. 1:3 serial dilutions are performed using DMSO/ACN (40:60) from 4 mM solution further down seven concentration points (400×final): 4 mM, 1.33 mM, 0.44 mM, 0.148 mM, […], 0.0165 mM, 0.00549 mM, 0 mM. […]

Going from `Cn1nc(C(=O)NC2CCNCC2)c2ccc(N3CCCCCC3)nc21.O=C(O)C(F)(F)F.O=C(O)C(F)(F)F` [compound 697] to `Cn1nc(C(=O)NC2CCN(CCN3CCCCC3)CC2)c2ccc(N3CCCCCC3)nc21` [compound 1047], the “CYP (% negative controls) 1A2” value rises from 97 % negative controls to 98 % negative controls.

Going from `CCC(CC)Oc1ccc2c(C(=O)NC3CCNCC3)n[nH]c2n1` [compound 726] to `Cn1nc(CCCN2CCCC2)c2ccc(N3CCCCCCC3)nc21` [compound 1171], the “CYP (% negative controls) 1A2” value rises from 102 % negative controls to 104 % negative controls.
